Results as given in PubChem BioAssay AID2060501 (Molecular Pharmacology Branch, DTP, NCI, 2025).

System: 282377-053-R-J1-PDC complex spheroids, viability
Assay: Anticancer human tumor 282377-053-R-J1-PDC patient-derived colon adenocarcinoma cell line growth inhibition [GQUAD]
Conditions: for IC50: curve of first compound; for viability, T/C: stronger effect = lower value; active = viability on the fitted dose curve at most 10% of control; inactive = the rest
In short: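 Tumor cells were grown as complex spheroids with HUVEC endothelial cells and mesenchymal stem cells as stroma. G-quadruplex stabilizers were combined with targeted agents over half-log dilutions from near the clinical Cmax, or from 10 microM.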

[1] = second compound 0.0316 µM, first compound 0.0316 µM
[2] = second compound 0.0316 µM, first compound 0.1 µM
[3] = second compound 0.0316 µM, first compound 0.316 µM
[4] = second compound 0.0316 µM, first compound 1 µM
[5] = second compound 0.0316 µM, first compound 3.16 µM
[6] = second compound 0.0316 µM, first compound 10 µM
[7] = second compound 0.1 µM, first compound 0.0316 µM
[8] = second compound 0.1 µM, first compound 0.1 µM
[9] = second compound 0.1 µM, first compound 0.316 µM
[10] = second compound 0.1 µM, first compound 1 µM
[11] = second compound 0.1 µM, first compound 3.16 µM
[12] = second compound 0.1 µM, first compound 10 µM
[13] = second compound 0.316 µM, first compound 0.0316 µM
[14] = second compound 0.316 µM, first compound 0.1 µM
[15] = second compound 0.316 µM, first compound 0.316 µM
[16] = second compound 0.316 µM, first compound 1 µM
[17] = second compound 0.316 µM, first compound 3.16 µM
[18] = second compound 0.316 µM, first compound 10 µM
[19] = second compound 1 µM, first compound 0.0316 µM
[20] = second compound 1 µM, first compound 0.1 µM
[21] = second compound 1 µM, first compound 0.316 µM
[22] = second compound 1 µM, first compound 1 µM
[23] = second compound 1 µM, first compound 3.16 µM
[24] = second compound 1 µM, first compound 10 µM
[25] = second compound 3.16 µM, first compound 0.0316 µM
[26] = second compound 3.16 µM, first compound 0.1 µM
[27] = second compound 3.16 µM, first compound 0.316 µM
[28] = second compound 3.16 µM, first compound 1 µM
[29] = second compound 3.16 µM, first compound 3.16 µM
[30] = second compound 3.16 µM, first compound 10 µM
[31] = second compound 10 µM, first compound 0.0316 µM
[32] = second compound 10 µM, first compound 0.1 µM
[33] = second compound 10 µM, first compound 0.316 µM
[34] = second compound 10 µM, first compound 1 µM
[35] = second compound 10 µM, first compound 3.16 µM
[36] = second compound 10 µM, first compound 10 µM
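Also: spheroids exposed to compounds for 7 days before readout.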
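For viability, T/C in this document: percent of vehicle DMSO control viability with 100% = untreated-like growth.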

CC1COCCN1c1cc(-c2ccnn2C)c2ccnc(-c3ccn[nH]3)c2n1 (stereo unspecified) + CN(C)c1ccc(Nc2c3ccc(NC(=O)CCN4CCCC4)cc3nc3cc(NC(=O)CCN4CCCC4)ccc23)cc1
559 nM: IC50 (second compound 1 µM)
717 nM: IC50 (second compound 0.1 µM)
inactive: viability, T/C [1] 86.5% | viability, T/C [2] 88% | viability, T/C [3] 61.9% | viability, T/C [4] 40.6% | viability, T/C [5] 34.6% | viability, T/C [6] 26.5% | viability, T/C [7] 91% | viability, T/C [8] 75.7% | viability, T/C [9] 67.1% | viability, T/C [10] 41.7% | viability, T/C [11] 32.8% | viability, T/C [12] 24.8% | viability, T/C [13] 82% | viability, T/C [14] 65.4% | viability, T/C [15] 56.8% | viability, T/C [16] 38.3% | viability, T/C [17] 38.5% | viability, T/C [18] 26.4% | viability, T/C [19] 79.1% | viability, T/C [20] 101% | viability, T/C [21] 67.3% | viability, T/C [22] 36.7% | viability, T/C [23] 32.6% | viability, T/C [24] 27.8% | viability, T/C [25] 84.5% | viability, T/C [26] 74% | viability, T/C [27] 67.4% | viability, T/C [28] 48.6% | viability, T/C [29] 38.6% | viability, T/C [30] 26.7% | viability, T/C [31] 85.1% | viability, T/C [32] 75.4% | viability, T/C [33] 64.1% | viability, T/C [34] 42.7% | viability, T/C [35] 38.6% | viability, T/C [36] 29%
745 nM: IC50 (second compound 10 µM)
612 nM: IC50 (second compound 0.0316 µM)
1080 nM: IC50 (second compound 3.16 µM)
480 nM: IC50 (second compound 0.316 µM)

Nc1ccn(C2OC(CO)C(O)C2(F)F)c(=O)n1 (stereo unspecified) + CN(C)c1ccc(Nc2c3ccc(NC(=O)CCN4CCCC4)cc3nc3cc(NC(=O)CCN4CCCC4)ccc23)cc1
inactive: viability, T/C [1] 112% | viability, T/C [2] 68.5% | viability, T/C [3] 49.7% | viability, T/C [4] 35.8% | viability, T/C [5] 32.5% | viability, T/C [6] 20.7% | viability, T/C [7] 114% | viability, T/C [8] 78.7% | viability, T/C [9] 42.9% | viability, T/C [10] 37.7% | viability, T/C [11] 30.8% | viability, T/C [12] 20.3% | viability, T/C [13] 115% | viability, T/C [14] 77.9% | viability, T/C [15] 40.9% | viability, T/C [16] 35.8% | viability, T/C [17] 33.7% | viability, T/C [18] 19.7% | viability, T/C [19] 95% | viability, T/C [20] 77.6% | viability, T/C [21] 42.7% | viability, T/C [22] 35.7% | viability, T/C [23] 32.7% | viability, T/C [24] 20.3% | viability, T/C [25] 87.6% | viability, T/C [26] 59.9% | viability, T/C [27] 44.5% | viability, T/C [28] 38.3% | viability, T/C [29] 38.5% | viability, T/C [30] 26.9% | viability, T/C [31] 92.1% | viability, T/C [32] 74% | viability, T/C [33] 40.2% | viability, T/C [34] 30.9% | viability, T/C [35] 36.3% | viability, T/C [36] 22.8%
228 nM: IC50 (second compound 10 µM)
227 nM: IC50 (second compound 3.16 µM)
271 nM: IC50 (second compound 1 µM)
290 nM: IC50 (second compound 0.0316 µM)
296 nM: IC50 (second compound 0.1 µM)
263 nM: IC50 (second compound 0.316 µM)

C#Cc1c(F)ccc2cc(O)cc(-c3ncc4c(N5CC6CCC(C5)N6)nc(OCC56CCCN5CC(F)C6)nc4c3F)c12 (stereo unspecified) + CN(C)c1ccc(Nc2c3ccc(NC(=O)CCN4CCCC4)cc3nc3cc(NC(=O)CCN4CCCC4)ccc23)cc1
inactive: viability, T/C [1] 98% | viability, T/C [2] 108% | viability, T/C [3] 89.1% | viability, T/C [4] 98.2% | viability, T/C [5] 84.2% | viability, T/C [6] 82.4% | viability, T/C [7] 103% | viability, T/C [8] 97.1% | viability, T/C [9] 79.2% | viability, T/C [10] 74.5% | viability, T/C [11] 88.7% | viability, T/C [12] 67.6% | viability, T/C [13] 93.7% | viability, T/C [14] 87.7% | viability, T/C [15] 87.4% | viability, T/C [16] 79.9% | viability, T/C [17] 73.1% | viability, T/C [18] 74% | viability, T/C [19] 87.5% | viability, T/C [20] 78.1% | viability, T/C [21] 70.7% | viability, T/C [22] 89.9% | viability, T/C [23] 91.2% | viability, T/C [24] 78.4% | viability, T/C [25] 78.9% | viability, T/C [26] 75.2% | viability, T/C [27] 86.6% | viability, T/C [28] 77.3% | viability, T/C [29] 91.7% | viability, T/C [30] 88.7% | viability, T/C [31] 83.1% | viability, T/C [32] 81.8% | viability, T/C [33] 91.8% | viability, T/C [34] 73.5% | viability, T/C [35] 90.8% | viability, T/C [36] 87.6%
> 10000 nM: IC50 (second compound 0.0316 µM) | IC50 (second compound 0.1 µM) | IC50 (second compound 0.316 µM) | IC50 (second compound 1 µM) | IC50 (second compound 3.16 µM) | IC50 (second compound 10 µM)
